Tests used:
Assay type in all cases: cell-based, mouse
MC3T3-E1 cells [1] = test: Real-time RT-PCR of vitamin D hydroxylation/degradation enzymes (CYP27A1, CYP27B1, CYP24A1), plastic wells; details: TCP, 2×10^−2 nmols, not irradiated
Experimental: (§1) To test the effect of the different treatments onto the plastic wells, 96-well plates made of polystyrene were used and the treatments with 7-DHC performed directly onto them. Cells grown onto untreated TCP were added as a control for all the experiments. Cells were seeded at a density of 30,000 cells/cm^2 and they were maintained in α-MEM supplemented with 10% FCS and antibiotics. Culture media was collected after 48 hours, to test cytotoxicity and the production of the hydroxylated forms of vitamin D. Cells were harvested after 2 days of culture using Trizol reagent (Roche Diagnostics, Mannheim, Germany), to analyse early gene expression response of several osteoblast differentiation markers and enzymes involved in vitamin D synthesis using real-time RT-PCR.
(§2) RNA was isolated from cells using a monophasic solution of phenol and guanidine thiocyanate (Trizol, Roche Diagnostics, Mannheim, Germany) according to the manufacturer's protocol. RNA was quantified at 260 nm using a Nanodrop spectrophotometer (NanoDrop Technologies, Wilmington, Del., USA).
(§3) Total RNA previously isolated was reverse-transcribed to cDNA using High Capacity RNA to cDNA kit (Applied Biosystems, Foster City, Calif.) according to the protocol of the supplier. The same amount of total RNA from each sample was converted into cDNA. Each cDNA was diluted ¼ and aliquots were stored at −20° C. until the PCR reactions were carried out.
(§4) Real-time RT-PCR was performed for two reference genes: 18S ribosomal RNA (18S rRNA), glyceraldehyde-3-phosphate dehydrogenase (GAPDH), and 11 target genes alkaline phospathase (ALP), Interleukin 6 (IL-6), Collagen (Coll-1), Osteocalcin (OC), Bone Morphogenetic Protein 2 (BMP-2), Osterix (Osx), Receptor activator of nuclear factor kappa-B ligand (RANKL), Osteoprogesterin (OPG) and genes involved in vitamin D synthesis such as Vitamin D3 25-hydroxylase (CYP27A1), 25 hydroxyvitamin D3-1-alpha hydroxylase (CYP27B1) and 1,25-dihydroxyvitamin D3 24-hydroxylase (CYP24A1).
Real-time PCR were performed in the Lightcycler 480® (Roche Diagnostics, Germany). […] After each cycle, fluorescence was measured at 72° C. […]
(§5) To allow relative quantification after PCR, real-time efficiencies were calculated from the given slopes in the LightCycler 480 software (Roche Diagnostics, Mannheim, Germany) using serial dilutions. Relative quantification after PCR was calculated by normalizing target gene concentration in each sample by the concentration mean of the two reference genes in given sample using the “advanced relative quantification method” provided by the LightCycler 480 analysis software.

MC3T3-E1 cells [2] = test: ALP activity in cell monolayer on coated titanium implants; details: Ti implants; day 21; UV-untreated; percentage of ethanol UV-untreated group set to 100%; mean±SEM
Experimental: (§6) To test the effect of the surface modification, 96-well plates were used. Ti disks were placed into the wells and treatments and UV-activation were performed over there. Cells grown onto untreated polystyrene tissue culture plastic (TCP) were added as a control for all the experiments. Cells were seeded at a density of 30,000 cells/cm^2 and they were maintained in α-MEM supplemented with 10% FCS and antibiotics. Culture media was collected after 48 hours, to test cytotoxicity and the production of the hydroxylated form of vitamin D, 25-D3. Cells were harvested after two days of culture using Trizol reagent (Roche Diagnostics, Mannheim, Germany), to analyze gene expression of several osteoblast differentiation markers and enzymes involved in vitamin D synthesis using real-time RT-PCR. On the other hand, MC3T3-E1 cells were harvested after 21 days to measure calcium content and ALP activity in the cell monolayer.
Cell monolayer was collected at 21 cell differentiation days and PBS 0.1% Triton X-100 was added to solubilize proteins. Cell lysates were put into freeze/thaw cycles (liquid nitrogen and 37° C. water bath) to improve protein recovery. After centrifugation at 33,000 g for 15 min at 4° C., supernatants acquired were assayed for ALP activity, calcium content and total protein determination. ALP activity was calculated by measuring the cleavage of p-Nitrophenyl Phosphate (pNPP) (Sigma, St. Louis, Mo., USA) in a soluble yellow end product which absorbs at 405 nm. A volume of 100 μl of this substrate was used in combination with 25 μl of each sample supernatant or standard point. The standard curve was prepared from calf intestinal alkaline phosphatase (CIAP, 1 U/μl) (Promega, Madison, Wis., USA) by mixing 1 μl from the stock CIAP with 5 ml of alkaline phosphatase buffer (1:5000 dilution), and then making 1:5 serial dilutions. Once the reaction was carried out, after 30 min in dark at room temperature, it was stopped with the addition of 50 μl of 3 M sodium hydroxide. At this point, absorbance was read at 405 nm.
Total protein was determined using a BCA protein assay kit (Pierce, Rockford, Ill., USA). For the analysis, cell supernatants were diluted 1:1 in PBS 0.1% Triton X-100. Standard curve and samples were analyzed as described by the manufacturer and reading the absorbance at 562 nm.

MC3T3-E1 cells [3] = test: Calcium content (mineralization, ICP-AES) on coated titanium implants; details: Ti implants; 28 days; UV-untreated; data not shown
Experimental: as §6, with “On the other hand, MC3T3-E1 cells were harvested after 21 days to measure calcium content and ALP activity in the cell monolayer.” left out
[…] Cell lysates were put into freeze/thaw cycles (liquid nitrogen and 37° C. water bath) to improve protein recovery. […] ALP activity was calculated by measuring the cleavage of p-Nitrophenyl Phosphate (pNPP) (Sigma, St. Louis, Mo., USA) in a soluble yellow end product which absorbs at 405 nm. […] At this point, absorbance was read at 405 nm.
To determine calcium content samples were analyzed by inductively coupled plasma atomic emission spectrometry (Optima 5300 DV, PerkinElmer, Massachussetts, USA). […]

MC3T3-E1 cells [4] = test: Real-time RT-PCR of bone markers, plastic wells; details: TCP; 2 days; 2×10^−2 nmols, not irradiated, compared to control
Experimental: as §1, §2, §3, §4
(§7) Real-time PCR were performed in the Lightcycler 480® (Roche Diagnostics, Germany). Each reaction contained 5 μl of LightCycler-FastStart DNA Master^PLUS SYBR Green I (Roche Diagnostics, Mannheim, Germany), 0.5 μM of the sense and antisense specific primers (Table 1) and 3 μl of the cDNA dilution in a final volume of 10 μl. The normal amplification program consisted of a preincubation step for denaturation of the template cDNA (10 min 95° C.), followed by 45 cycles consisting of a denaturation step (10 s 95° C.), an annealing step (10 s 60° C., except for ALP that was 10 s at 65° C., OSX with 10 s at 68° C. and CYP24A1 at 58° C. 10 s) and an extension step (10 s 72° C.). After each cycle, fluorescence was measured at 72° C. Every run included a negative control without cDNA template. To confirm amplification specificity, PCR products were subjected to a melting curve analysis on the LightCycler and subsequently 2% agarose/TAE gel electrophoresis, Tm and amplicon size, respectively.
as §5

MC3T3-E1 cells [5] = test: ELISA of 25-D3 and 1,25-D3 released to the culture media, plastic wells; details: TCP; 48 hours; 2×10^−2 nmols, not irradiated; mean±SEM
Experimental: as §1
25-D3 and 1,25-D3 released to the culture media after two days of treatment were analyzed by enzyme-linked immunosorbent assay (ELISA). Aliquots from the culture media were centrifuged at 1800 rpm for 5 minutes at 4° C. and supernatants were used for 25-D3 and 1,25-D3 determination following instructions described by the manufacturer (Immunodiagnostic Systems Ltd, Boldon, Tyne and Wear, UK).

MC3T3-E1 cells [6] = test: Real-time RT-PCR of osteoblast differentiation markers, coated titanium implants; details: Ti implants; 48 h; 2×10^−2 nmols, no UV, compared to control
Experimental: as §6, §2, §3
as §7, with “Real-time RT-PCR was performed for two reference genes: 18S ribosomal RNA (18S rRNA), glyceraldehyde-3-phosphate dehydrogenase (GAPDH); and eleven target genes: alkaline phosphathase (ALP), Interleukin 6 (IL-6), Collagen (Coll-1), Osteocalcin (OC), Bone Morphogenetic Protein 2 (BMP-2), Osterix (Osx), Receptor activator of nuclear factor kappa-B ligand (RANKL), Osteoprogesterin (OPG) and genes involved in vitamin D synthesis such as Vitamin D3 25-hydroxylase (CYP27A1) and 25 hydroxyvitamin D3-1-alpha hydroxylase (CYP27B1). Real-time” for “Real-time”, “C.)” for “C. and CYP24A1 at 58° C. 10 s)”
To allow relative quantification after PCR, real-time efficiencies were calculated from the given slopes in the LightCycler 480 software (Roche Diagnostics, Mannheim, Germany) using serial dilutions. Relative quantification after PCR was calculated by normalizing target gene concentration in each sample by the concentration mean of the two reference genes in given sample using the Advanced relative quantification method provided by the LightCycler 480 analysis software.

Row | SMILES | CYP27B1 mRNA expression (MC3T3-E1 cells [1]; 48 h) | CYP24A1 mRNA levels (MC3T3-E1 cells [1]; 2 days, data not shown) | ALP activity (MC3T3-E1 cells [2]) [%] | Calcium levels (MC3T3-E1 cells [3]) | IL-6 expression levels (MC3T3-E1 cells [4]) | 1,25-D3 detected in culture media (MC3T3-E1 cells [5]) [pmol/L] | 25-D3 released to culture media (MC3T3-E1 cells [5]) [nmol/L] | RANKL gene expression (MC3T3-E1 cells [6])
1 | C=C1CC[C@H](O)C/C1=C/C=C1\CCC[C@]2(C)[C@@H]([C@H](C)CCCC(C)(C)O)CC[C@@H]12 [25-D3, 25-hydroxyvitamin D3, reference compound] | not statistically different | only detected | 77.40±13.40 | trend to increased calcium levels | significantly higher expression levels | 42 ± 4 | 415 ± 20 | 
2 | C=C1CC[C@H](O)C/C1=C/C=C1\CCC[C@]2(C)[C@@H]([C@H](C)CCCC(C)C)CC[C@@H]12 [D3, cholecalciferol, reference compound] |  |  | 35.28±4.23 |  |  | 19.7 ± 0.7 | 9.1 ± 1.9 | Statistical significances
